In patent US20090142364A1, “Method for finding novel peptide immunostimulatory adjuvants, compositions and methods of use” (priority 2007, published 2009):
Entries after “also recorded” stand apart in the source; their conditions may differ. Where a SMILES comes first, the peptide text is derived from it.

Legend:
[1] = Immunogenicity of the peptide: anti-peptide antibody titer by solid-phase ELISA; assay type: in vivo, Balb/c mice; conditions: mice immunized once or twice in PBS, 1-100 μg i.p.
Procedure: Immunogenicity of the peptide. Groups of Balb/c mice (5 mice) were immunized with 1-100 μg RN-peptide in PBS i.p. twice with 10-day interval. The anti-peptide antibody titer was estimated in pooled sera by solid-phase ELISA using MaxiSorb plates (Nunc, Denmark) coated with RN-peptide (10 μg/ml). The anti-peptide antibody titer was compared with the titer of normal mouse serum. E6/1.2 mAb was used as a positive control.

[2] = test system: E. coli strain TG-1; experiment: Survival of Balb/c mice infected with E. coli strain TG-1; assay type: in vivo, mouse; conditions: 2 ng i.p., 6 mice at 0 h
Procedure: Groups of Balb/c mice (20-22 g) were administered i.p. with RN-peptide, or GMDP, or saline (control), and then infected i.p. with E. coli strain TG-1 cells. Two doses of E. coli cells were used—1×10^8 (LD50) and 2×10^8 (LD100). Mice were infected one day (experiment A) or seven days (experiment B) after injection of the immunomodulator. Survival of mice was assessed during three days. Results showing that RN-peptide protects mice from lethal doses of E. coli infections (Table 4).

[3] = Experiment A (infected one day after injection), 1 × 10^8 E. coli cells (LD50)
[4] = Experiment A (infected one day after injection), 2 × 10^8 E. coli cells (LD100)
[5] = Experiment B (infected seven days after injection), 1 × 10^8 E. coli cells (LD50)
[6] = Experiment B (infected seven days after injection), 2 × 10^8 E. coli cells (LD100)

With CC[C@H](C)[C@H](NC(=O)[C@H](CCCCN)NC(=O)[C@H](C)NC(=O)[C@H](Cc1c[nH]cn1)NC(=O)[C@H](Cc1ccc(O)cc1)NC(=O)[C@H](CCCNC(=N)N)NC(=O)[C@@H]1CCCN1C(=O)[C@@H]1CCCN1C(=O)[C@@H](NC(=O)[C@@H](N)CCCNC(=N)N)C(C)C)C(=O)N[C@@H](CO)C(=O)N1CCC[C@H]1C(=O)N[C@@H](CCSC)C(=O)N[C@H](C(=O)N[C@@H](CC(N)=O)C(=O)O)C(C)C [RN-peptide, RVPPRYHAKISPMVN] (H-RVPPRYHAKISPMVN-OH) as the molecule, how does the “anti-RN-peptide antibodies (humoral response to the peptide)” value [1] read?
The value was “did not reveal any anti-RN-peptide antibodies; also recorded: did not exceed the titer of native mice”.

And the Number of survivors [2, 3]?
Its Number of survivors is 5.

What about the “surviving mice, 24 hours after infection” value [2, 3] of the same molecule?
Its value is 6.

And the “surviving mice, 28 hours after infection” value [2, 3]?
The value was 5.

What about the “surviving mice, 72 hours after infection” value [2, 3] of the same molecule?
Its value is 5.

What about the Number of survivors [2, 4] of the same molecule?
The Number of survivors was 2.

And the “surviving mice, 24 hours after infection” value [2, 4]?
The value was 5.

And the “surviving mice, 28 hours after infection” value [2, 4]?
Its value is 5.

And the “surviving mice, 72 hours after infection” value [2, 4]?
Its value is 2.

And the Number of survivors [2, 5]?
Its Number of survivors is 4.

What about the “surviving mice, 24 hours after infection” value [2, 5] of the same molecule?
Its value is 6.

And the “surviving mice, 28 hours after infection” value [2, 5]?
Its value is 5.

And the “surviving mice, 72 hours after infection” value [2, 5]?
Its value is 4.

What about the Number of survivors [2, 6] of the same molecule?
Its Number of survivors is 1.

And the “surviving mice, 24 hours after infection” value [2, 6]?
The value was 3.

What about the “surviving mice, 28 hours after infection” value [2, 6] of the same molecule?
The value was 3.

What about the “surviving mice, 72 hours after infection” value [2, 6] of the same molecule?
Its value is 1.
